Results taken from patent US8501734B2, “Medical intervention in haematological cancers” (Oncotyrol-Center for Personalized Cancer Medicine GmbH …, priority 2008, dated 2013).

What was measured:
OPM2 cells = assay: Annexin V/PI apoptosis assay (FACS), OPM2 cells; format: cell-based; parameters: apoptosis induction: unit not given here; details: OPM2 cells
Experimental: (§1) After treatment adherent cells were trypsinized (as described before), and resuspended in corresponding full medium. Suspension cells or trypsinized adherent cells, supernatant and washing solution (1×PBS from washing before trypsinization) were pooled and then spun down (300 g for 3 min) washed in 2 ml and resuspended in 1000 of annexin V binding buffer and mixed with 2 μg/ml annexin V-Allophycocyanin (APC) (BD-Pharmingen, San Diego, Calif., USA) and 50 ng/ml of propidium iodide (PI; Sigma Aldrich). At least 10.000 cells were measured per sample using a Becton Dickinson FACSCalibur flow Cytometer (San Jose, Calif., USA). Percentage of Annexin V negative and PI negative cells were depicted in the figures. For the analysis of the pro-apoptotic activity of Imiquimod® in primary MM cells and non-malignant BMMCs, 5×10^5 cells BMMCs cells were treated with or without 40 μg/ml Imiquimod® for the indicated time periods. Cells were then harvested and washed twice with PBS. Detection of apoptotic cells was performed using the annexin V/PI assay according to manufacturers' instruction. Briefly, BMMCs were stained with a mixture of annexin V/FITC (Alexis Coorp., Laeufelfingen, Switzerland), propidium iodide (Sigma), anti-CD38-PE and anti-CD45-PC5 for 15 min at room temperature and immediately analyzed by flow cytometry. The percentages of viable cells (i.e. cells negative for annexin V/FITC and PI) within the MM (CD38^posCD45^low/absent) and non-MM fraction (CD38^neg/CD45^pos) were determined by flow cytometry.
Cells were cultured as described before and, treated with 40 μg/ml Imiquimod® or Gardiquimod® for 24 h, and apoptosis was assayed by AnnexinV/PI staining and FACS analysis.
(§2) Adherent cells were grown in 24-well plates to confluence and treated with 40 μg/ml Imiquimod® for 24 h. Cells were then trypsinized, suspended in full medium, stained for AnnexinV/PI and apoptosis was measured as described before. Suspension cells (250.000) were treated with 40 μg/ml Imiquimod® for 24 h, stained for Annexin/PI and apoptosis was measured as described above (Annexin V/Propidium Iodide apoptosis Assay).
(§3) OPM-2 and U266 cells (2.5×10^5 in 500 μl) were treated with either Imiquimod® alone (10 μg/500 μl), various inhibitors/drugs alone or with the combination of Imiquimod® and inhibitors for 24 or 48 h. In the controls the solvent of the drug has been added in appropriate amounts. Cells were then AnnexinV/PI stained and apoptosis measured as described before.

U266 cells = assay: Annexin V/PI apoptosis assay (FACS), U266 cells; format: cell-based; parameters: apoptosis induction: unit not given here; note: key: 0 for no; + for low; ++: + indicates the range of apoptosis induction; +++: + indicates the range of apoptosis induction; ++++ for very strong apoptosis induction
Experimental: as §1, §2, §3

[1] = 24 h, Imi 20 μg/ml + drug 10 μM
[2] = 24 h, Imi 20 μg/ml + drug 50 μM
[3] = 48 h, Imi 20 μg/ml + drug 10 μM
[4] = 48 h, Imi 20 μg/ml + drug 50 μM
[5] = 24 h, Imi 20 μg/ml + drug 10 nM
[6] = 24 h, Imi 20 μg/ml + drug 100 nM
[7] = 48 h, Imi 20 μg/ml + drug 10 nM
[8] = 48 h, Imi 20 μg/ml + drug 100 nM
[9] = 24 h, Imi 20 μg/ml + drug 1 ng/ml
[10] = 24 h, Imi 20 μg/ml + drug 10 ng/ml
[11] = 24 h, Imi 20 μg/ml + drug 50 ng/ml
[12] = 48 h, Imi 20 μg/ml + drug 1 ng/ml
[13] = 48 h, Imi 20 μg/ml + drug 10 ng/ml
[14] = 48 h, Imi 20 μg/ml + drug 50 ng/ml
[15] = 24 h, Imi 20 μg/ml + drug 100 μM
[16] = 48 h, Imi 20 μg/ml + drug 100 μM
[17] = 24 h, Imi 20 μg/ml + drug 20 μM
[18] = 48 h, Imi 20 μg/ml + drug 20 μM

CNC(=O)c1cc(Oc2ccc(NC(=O)Nc3ccc(Cl)c(C(F)(F)F)c3)cc2)ccn1 [Sorafenib]
apoptosis induction (OPM2 cells; 24 h, Imi 20 μg/ml + drug 1 μM): + | apoptosis induction (OPM2 cells; [1]): + | apoptosis induction (OPM2 cells; [2]): ++++ | apoptosis induction (OPM2 cells; 24 h, drug alone 1 μM): 0 | apoptosis induction (OPM2 cells; 24 h, drug alone 10 μM): + | apoptosis induction (OPM2 cells; 24 h, drug alone 50 μM): ++++ | cells in apoptosis (OPM2 cells; 48 h, 10 μM drug + Imiquimod 20 μg/ml): ~100% | apoptosis induction (OPM2 cells; 48 h, Imi 20 μg/ml + drug 1 μM): ++ | apoptosis induction (OPM2 cells; [3]): ++++ | apoptosis induction (OPM2 cells; [4]): ++++ | apoptosis induction (OPM2 cells; 48 h, drug alone 1 μM): 0 | apoptosis induction (OPM2 cells; 48 h, drug alone 10 μM): ++ | apoptosis induction (OPM2 cells; 48 h, drug alone 50 μM): ++++ | cell killing (OPM2 cells; drug alone 50 μM): completely killed cells | apoptosis induction (U266 cells; 24 h, Imi 20 μg/ml + drug 1 μM): 0 | apoptosis induction (U266 cells; [1]): + | apoptosis induction (U266 cells; [2]): +++ | apoptosis induction (U266 cells; 24 h, drug alone 1 μM): 0 | apoptosis induction (U266 cells; 24 h, drug alone 10 μM): 0 | apoptosis induction (U266 cells; 24 h, drug alone 50 μM): +++ | apoptosis induction (U266 cells; 48 h, Imi 20 μg/ml + drug 1 μM): + | apoptosis induction (U266 cells; [3]): ++ | apoptosis induction (U266 cells; [4]): +++ | apoptosis induction (U266 cells; 48 h, drug alone 1 μM): + | apoptosis induction (U266 cells; 48 h, drug alone 10 μM): + | apoptosis induction (U266 cells; 48 h, drug alone 50 μM): +++

CCNCc1nc2c(N)nc3ccccc3c2n1CC(C)(C)O [Gardiquimod, 1-(4-Amino-2-ethylaminomethylimidazo[4,5-c]quinolin-1-yl)-2-methylpropan-2-ol]
apoptosis induction compared with Imiquimod (OPM2 cells; 40 μg/ml, 24 h): comparable, though slightly lower extend

C[C@@H]1C[C@H]2[C@@H]3CCC4=CC(=O)C=C[C@]4(C)[C@@]3(F)[C@@H](O)C[C@]2(C)[C@@]1(O)C(=O)CO [Dex., Dexamethasone]
apoptosis induction (OPM2 cells; [5]): + | apoptosis induction (OPM2 cells; [6]): + | apoptosis induction (OPM2 cells; 24 h, Imi 20 μg/ml + drug 1 μM): + | apoptosis induction (OPM2 cells; 24 h, drug alone 10 nM): 0 | apoptosis induction (OPM2 cells; 24 h, drug alone 100 nM): 0 | apoptosis induction (OPM2 cells; 24 h, drug alone 1 μM): 0 | apoptosis induction (OPM2 cells; [7]): ++ | apoptosis induction (OPM2 cells; [8]): +++ | apoptosis induction (OPM2 cells; 48 h, Imi 20 μg/ml + drug 1 μM): +++ | apoptosis induction (OPM2 cells; 48 h, drug alone 10 nM): 0 | apoptosis induction (OPM2 cells; 48 h, drug alone 100 nM): 0 | apoptosis induction (OPM2 cells; 48 h, drug alone 1 μM): 0 | apoptosis induction (U266 cells; [5]): + | apoptosis induction (U266 cells; [6]): + | apoptosis induction (U266 cells; 24 h, Imi 20 μg/ml + drug 1 μM): + | apoptosis induction (U266 cells; 24 h, drug alone 10 nM): 0 | apoptosis induction (U266 cells; 24 h, drug alone 100 nM): 0 | apoptosis induction (U266 cells; 24 h, drug alone 1 μM): 0 | apoptosis induction (U266 cells; [7]): + | apoptosis induction (U266 cells; [8]): + | apoptosis induction (U266 cells; 48 h, Imi 20 μg/ml + drug 1 μM): + | apoptosis induction (U266 cells; 48 h, drug alone 10 nM): 0 | apoptosis induction (U266 cells; 48 h, drug alone 100 nM): 0 | apoptosis induction (U266 cells; 48 h, drug alone 1 μM): 0

CC(C)C[C@H](NC(=O)[C@H](Cc1ccccc1)NC(=O)c1cnccn1)B(O)O [Velcade]
apoptosis induction (OPM2 cells; [9]): + | apoptosis induction (OPM2 cells; [10]): + | apoptosis induction (OPM2 cells; [11]): + | apoptosis induction (OPM2 cells; 24 h, drug alone 1 ng/ml): 0 | apoptosis induction (OPM2 cells; 24 h, drug alone 10 ng/ml): + | apoptosis induction (OPM2 cells; 24 h, drug alone 50 ng/ml): + | apoptosis induction (OPM2 cells; [12]): ++ | apoptosis induction (OPM2 cells; [13]): ++ | apoptosis induction (OPM2 cells; [14]): +++ | apoptosis induction (OPM2 cells; 48 h, drug alone 1 ng/ml): 0 | apoptosis induction (OPM2 cells; 48 h, drug alone 10 ng/ml): +++ | apoptosis induction (OPM2 cells; 48 h, drug alone 50 ng/ml): +++ | apoptosis induction (U266 cells; [9]): + | apoptosis induction (U266 cells; [10]): + | apoptosis induction (U266 cells; [11]): ++ | apoptosis induction (U266 cells; 24 h, drug alone 1 ng/ml): 0 | apoptosis induction (U266 cells; 24 h, drug alone 10 ng/ml): ++ | apoptosis induction (U266 cells; 24 h, drug alone 50 ng/ml): ++ | apoptosis induction (U266 cells; [12]): + | apoptosis induction (U266 cells; [13]): ++ | apoptosis induction (U266 cells; [14]): ++ | apoptosis induction (U266 cells; 48 h, drug alone 1 ng/ml): 0 | apoptosis induction (U266 cells; 48 h, drug alone 10 ng/ml): +++ | apoptosis induction (U266 cells; 48 h, drug alone 50 ng/ml): +++

O=C1CCC(N2C(=O)c3ccccc3C2=O)C(=O)N1 (stereo not shown) [Thalidomide]
apoptosis induction (OPM2 cells; [1]): + | apoptosis induction (OPM2 cells; [15]): + | apoptosis induction (OPM2 cells; 24 h, Imi 20 μg/ml + drug 1 mM): + | apoptosis induction (OPM2 cells; 24 h, drug alone 10 μM): 0 | apoptosis induction (OPM2 cells; 24 h, drug alone 100 μM): 0 | apoptosis induction (OPM2 cells; 24 h, drug alone 1 mM): 0 | apoptosis induction (OPM2 cells; [3]): ++ | apoptosis induction (OPM2 cells; [16]): ++ | apoptosis induction (OPM2 cells; 48 h, Imi 20 μg/ml + drug 1 mM): +++ | apoptosis induction (OPM2 cells; 48 h, drug alone 10 μM): 0 | apoptosis induction (OPM2 cells; 48 h, drug alone 100 μM): 0 | apoptosis induction (OPM2 cells; 48 h, drug alone 1 mM): 0 | apoptosis induction (U266 cells; [1]): + | apoptosis induction (U266 cells; [15]): + | apoptosis induction (U266 cells; 24 h, Imi 20 μg/ml + drug 1 mM): + | apoptosis induction (U266 cells; 24 h, drug alone 10 μM): 0 | apoptosis induction (U266 cells; 24 h, drug alone 100 μM): 0 | apoptosis induction (U266 cells; 24 h, drug alone 1 mM): + | apoptosis induction (U266 cells; [3]): + | apoptosis induction (U266 cells; [16]): + | apoptosis induction (U266 cells; 48 h, Imi 20 μg/ml + drug 1 mM): + | apoptosis induction (U266 cells; 48 h, drug alone 10 μM): 0 | apoptosis induction (U266 cells; 48 h, drug alone 100 μM): 0 | apoptosis induction (U266 cells; 48 h, drug alone 1 mM): +

N[C@@H](Cc1ccc(N(CCCl)CCCl)cc1)C(=O)O [Melphalan]
apoptosis induction (OPM2 cells; [1]): + | apoptosis induction (OPM2 cells; [17]): ++ | apoptosis induction (OPM2 cells; [2]): ++ | apoptosis induction (OPM2 cells; 24 h, drug alone 10 μM): + | apoptosis induction (OPM2 cells; 24 h, drug alone 20 μM): + | apoptosis induction (OPM2 cells; 24 h, drug alone 50 μM): ++ | apoptosis induction (OPM2 cells; [3]): ++ | apoptosis induction (OPM2 cells; [18]): ++++ | apoptosis induction (OPM2 cells; [4]): ++++ | apoptosis induction (OPM2 cells; 48 h, drug 20 μM and 50 μM + Imiquimod 20 μg/ml): nearly complete apoptosis induction in all cells | apoptosis induction (OPM2 cells; 48 h, drug alone 10 μM): + | apoptosis induction (OPM2 cells; 48 h, drug alone 20 μM): ++ | apoptosis induction (OPM2 cells; 48 h, drug alone 50 μM): +++ | apoptosis induction (U266 cells; [1]): + | apoptosis induction (U266 cells; [17]): ++ | apoptosis induction (U266 cells; [2]): +++ | apoptosis induction (U266 cells; 24 h, drug alone 10 μM): + | apoptosis induction (U266 cells; 24 h, drug alone 20 μM): + | apoptosis induction (U266 cells; 24 h, drug alone 50 μM): ++ | apoptosis induction (U266 cells; [3]): ++ | apoptosis induction (U266 cells; [18]): ++ | apoptosis induction (U266 cells; [4]): +++ | apoptosis induction (U266 cells; 48 h, drug alone 10 μM): + | apoptosis induction (U266 cells; 48 h, drug alone 20 μM): + | apoptosis induction (U266 cells; 48 h, drug alone 50 μM): +++
